Experimental data taken from US20230099344A1, “COMPOUNDS AND METHODS FOR THE TARGETED DEGRADATION OF IRAK-4” (Arvinas Operations, Inc., priority 2021, published 2023).

Columns and labels:
Assay type in all cases: cell-based
IL6 [1] = assay: LPS stimulated IL6 inhibition assay in PBMC; conditions: human PBMCs, LPS stimulation, compound overnight, IL6 by MSD after 24 hrs; for Dmax: read-out: LPS Stim IL6 inhibition Dmax; for IC50: read-out: LPS stim IL6 inhibition IC50
Protocol: (§1) IL-1β, LPS, or R848 Stimulated IL6 Inhibition and IL-1β Stimulated IL8 Inhibition Assay
(§2) Human PBMC cells were seeded at 2.0×10^6 cells/mL, treated with compound overnight, and dosed with the EC50 concentration of each stimulant (either IL-1B. LPS, or R848) was determined for each donor. After 24 hrs, media was collected and analyzed by MSD for IL6 and/or IL8 levels.

IL6 [2] = assay: R848 stimulated IL6 inhibition assay in PBMC; conditions: human PBMCs, R848 stimulation, compound overnight, IL6 by MSD after 24 hrs; for Dmax: Homo sapiens, 24 h, read-out: R848 stim IL6 inhibition Dmax; for IC50: read-out: R848 stim IL6 inhibition IC50
Protocol: as §1, §2

IRAK-4 = molecular target: T1, IRAK-4 (Homo sapiens, UniProt Q9NWZ3); assay: IRAK-4 ELISA, PBMC degradation; set-up: endogenous in cells; host or cells: PBMC; conditions: treated overnight
T1 sequence (Q9NWZ3 1-460): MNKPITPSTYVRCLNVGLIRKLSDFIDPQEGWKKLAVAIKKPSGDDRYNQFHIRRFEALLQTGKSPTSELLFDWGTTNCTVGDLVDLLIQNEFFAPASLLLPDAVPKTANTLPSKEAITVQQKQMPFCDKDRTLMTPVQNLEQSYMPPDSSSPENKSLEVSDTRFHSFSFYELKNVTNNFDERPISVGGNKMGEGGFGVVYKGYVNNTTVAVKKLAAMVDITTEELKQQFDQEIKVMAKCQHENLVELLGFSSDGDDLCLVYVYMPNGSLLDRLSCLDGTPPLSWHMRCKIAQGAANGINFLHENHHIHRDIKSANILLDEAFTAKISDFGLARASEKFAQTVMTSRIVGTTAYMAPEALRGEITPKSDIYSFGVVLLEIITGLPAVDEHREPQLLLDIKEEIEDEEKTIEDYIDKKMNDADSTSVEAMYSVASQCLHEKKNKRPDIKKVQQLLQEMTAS
Method in brief: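 Readout: IRAK-4 protein level in cell lysate, sandwich ELISA. Cells: OCI-Ly10 at 1×10^6/ml or PBMC at 2×10^6/ml, compound added same day, overnight incubation.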

SMILES | IC50 (IL6 [1]; Homo sapiens, PBMC, 24 h) [nM] | IC50 (IL6 [2]; PBMC) [nM] | DC50 (IRAK-4) [nM] | Dmax (IRAK-4) [%] | PBMC DC90 (IRAK-4) | IC50 (IL6 [1]) [nM] | IC50 (IL6 [2]) [nM] | PBMC Dmax (IRAK-4) | Dmax (IL6 [1]; Homo sapiens, PBMC, 24 h) [%] | Dmax (IL6 [2]; PBMC) [%] | LPS Stim IL6 inhibition Dmax (IL6 [1]) | R848 stim IL6 inhibition Dmax (IL6 [2])
C=C(CN1CCC(N2Cc3cc(NC(=O)c4cnn5cccnc45)c(OC(C)C)cc3C2=O)CC1)C1CCN(c2ccc3c(c2)C(=O)N(C2CCC(=O)NC2=O)C3=O)CC1 (stereo not drawn) [Example 110] | 10 to 50 | 10 to 50 | 1 to 5 | ≥ 90 | B (B represents a DC90 value ≥10.0 nM and <25.0 nM) | – | – | – | 80 to 90 | ≥ 90 | – | –
O=C1CCC(N2C(=O)c3ccc(N4CCC(CN5CCC(n6cc7cc(NC(=O)c8cnn9cccnc89)c(N8CCC(N9CCC9)CC8)cc7n6)CC5)CC4)cc3C2=O)C(=O)N1 (stereo not drawn) [Example 150] | 50 to 100 | 10 to 50 | 1 to 5 | 80 to 90 | C (C represents a DC90 value ≥25.0 nM and <50 nM) | – | – | – | 80 to 90 | ≥ 90 | – | –
CN1CC(Oc2cc3c(cc2NC(=O)c2cnn4cccnc24)CN(C2CCN(CC4CN(c5ccc6c(c5)C(=O)N(C5CCC(=O)NC5=O)C6=O)C4)CC2)C3=O)C1 (stereo not drawn) [Example 44] | 50 to 100 | 10 to 50 | ≥ 10 | 80 to 90 | D (D represents a DC90 value ≥50 nM) | – | – | – | 70 to 80 | ≥ 90 | – | –
O=C1CCC(N2Cc3ccc(N4CCC(CN5CCC(N6Cc7cc(NC(=O)c8cnn9cccnc89)c(N8CCC(N9CCC9)CC8)cc7C6=O)CC5)CC4)cc3C2=O)C(=O)N1 (stereo not drawn) [Example 49] | < 10 | < 10 | < 1 | ≥ 90 | A (A represents a DC90 value <10.0 nM) | – | – | – | ≥ 90 | ≥ 90 | – | –
CC(C)Oc1cc2c(cc1NC(=O)c1cnn3cccnc13)CN(C1CCN(CC3(F)CN(c4ccc5c(c4)C(=O)N(C4CCC(=O)NC4=O)C5)C3)CC1)C2=O (stereo not drawn) [Example 106] | ≥ 100 | 10 to 50 | 1 to 5 | ≥ 90 | A (A represents a DC90 value <10.0 nM) | – | – | – | 80 to 90 | ≥ 90 | – | –
O=C1CCC(N2Cc3cc(N4CCC(CN5CCC(n6cc7cc(NC(=O)c8cnn9cccnc89)c(N8CCN(CC(F)F)CC8)cc7n6)CC5)CC4)ccc3C2=O)C(=O)N1 (stereo not drawn) [Example 157] | 10 to 50 | 10 to 50 | < 1 | ≥ 90 | A (A represents a DC90 value <10.0 nM) | – | – | – | 70 to 80 | ≥ 90 | – | –
O=C1CCC(N2C(=O)c3ccc(N4CCC5(CC4)CN([C@H]4CC[C@H](n6cc7cc(NC(=O)c8cnn9cccnc89)c(OCC8CC8)cc7n6)CC4)C5)cc3C2=O)C(=O)N1 (stereo partly drawn) [Example 353] | 10 to 50 | 10 to 50 | 1 to 5 | 80 to 90 | B (B represents a DC90 value ≥10.0 nM and <25.0 nM) | – | – | – | 70 to 80 | ≥ 90 | – | –
O=C1CCC(N2C(=O)c3ccc(N4CCC(CN5CCC(n6cc7cc(NC(=O)c8cnn9cccnc89)c(N8CCN(CC(F)F)CC8)cc7n6)CC5)CC4)cc3C2=O)C(=O)N1 (stereo not drawn) [Example 159] | 10 to 50 | 10 to 50 | 1 to 5 | ≥ 90 | A (A represents a DC90 value <10.0 nM) | – | – | – | 70 to 80 | ≥ 90 | – | –

Further lines, with some results ahead:

IC50 (IL6 [1]; Homo sapiens, PBMC, 24 h) [nM] | IC50 (IL6 [2]; PBMC) [nM] | DC50 (IRAK-4) [nM] | Dmax (IRAK-4) [%] | PBMC DC90 (IRAK-4) | IC50 (IL6 [1]) [nM] | IC50 (IL6 [2]) [nM] | PBMC Dmax (IRAK-4) | SMILES | Dmax (IL6 [1]; Homo sapiens, PBMC, 24 h) [%] | Dmax (IL6 [2]; PBMC) [%] | LPS Stim IL6 inhibition Dmax (IL6 [1]) | R848 stim IL6 inhibition Dmax (IL6 [2])
< 10 | < 10 | < 1 | ≥ 90 | A (A represents a DC90 value <10.0 nM) | – | – | – | O=C1CCC(N2Cc3ccc(N4CCN(C[C@H]5CC[C@H](n6cc7cc(NC(=O)c8cnn9cccnc89)c(OCC(F)F)cc7n6)CC5)CC4)cc3C2=O)C(=O)N1 (stereo partly drawn) [Example 433] | 80 to 90 | ≥ 90 | – | –
50 to 100 | 50 to 100 | ≥ 10 | – | D (D represents a DC90 value ≥50 nM) | – | – | – | O=C1CCC(N2C(=O)c3ccc(N4CC[C@@H](O[C@H]5CC[C@@H](n6cc7cc(NC(=O)c8cnn9cccnc89)c(OCC8CC8)cc7n6)CC5)C4)cc3C2=O)C(=O)N1 (stereo partly drawn) [Example 425] | 70 to 80 | 70 to 80 | – | –
– | – | < 1 | – | A (A represents a DC90 value <10.0 nM) | ≥ 100 | < 10 | A (A represents a Dmax value ≥90) | CC(C)Oc1cc2c(cc1NC(=O)c1cnn3cccnc13)CN([C@H]1CC[C@H](N(C)C3CN(c4cccc5c4n(C)c(=O)n5C4CCC(=O)NC4=O)C3)CC1)C2=O (stereo partly drawn) [Example 384, N-(2-((1r,4r)-4-((1-(1-(2,6-dioxopiperidin-3-yl)-3-methyl-2-oxo-2,3-dihydro-1H-benzo[d]imidazol-4-yl)azetidin-3-yl)(methyl)amino)cyclohexyl)-6-isopropoxy-1-oxoisoindolin-5-yl)pyrazolo[1,5-a]pyrimidine-3-carboxamide] | – | – | C (C represents a Ymax value ≥70 and <80) | A (A represents a Ymax value ≥90)
< 10 | 10 to 50 | < 1 | ≥ 90 | A (A represents a DC90 value <10.0 nM) | – | – | – | CN([C@H]1CC[C@H](n2cc3cc(NC(=O)c4cnn5cccnc45)c(OCC4CC4)cc3n2)CC1)[C@H]1C[C@H](Oc2ccc3c(c2)C(=O)N(C2CCC(=O)NC2=O)C3=O)C1 (stereo partly drawn) [Example 372] | 80 to 90 | ≥ 90 | – | –
10 to 50 | < 10 | 1 to 5 | 70 to 80 | A (A represents a DC90 value <10.0 nM) | – | – | – | O=C1CCC(N2Cc3ccc(N4CC(F)(CN5CCC(n6cc7cc(NC(=O)c8cnn9cccnc89)c(OCC8CC8)cc7n6)CC5)C4)cc3C2=O)C(=O)N1 (stereo not drawn) [Example 245] | 80 to 90 | ≥ 90 | – | –
< 10 | 10 to 50 | < 1 | 80 to 90 | A (A represents a DC90 value <10.0 nM) | – | – | – | O=C1CCC(N2Cc3cc(N4CCC(O)(CN5CCC(n6cc7cc(NC(=O)c8cnn9cccnc89)c(OCC8CC8)cc7n6)CC5)CC4)ccc3C2=O)C(=O)N1 (stereo not drawn) [Example 258] | 70 to 80 | ≥ 90 | – | –
10 to 50 | 10 to 50 | 1 to 5 | 80 to 90 | A (A represents a DC90 value <10.0 nM) | – | – | – | O=C1CCC(N2Cc3cc(F)c(N4CC(F)(CN5CCC(n6cc7cc(NC(=O)c8cnn9cccnc89)c(OCC8CC8)cc7n6)CC5)C4)cc3C2=O)C(=O)N1 (stereo not drawn) [Example 269, N-[6-(cyclopropylmethoxy)-2-[1-({1-[2-(2,6-dioxopiperidin-3-yl)-6-fluoro-3-oxo-2,3-dihydro-1H-isoindol-5-yl]-3-fluoroazetidin-3-yl}methyl)piperidin-4-yl]-2H-indazol-5-yl]pyrazolo[1,5-a]pyrimidine-3-carboxamide] | 80 to 90 | ≥ 90 | – | –
< 10 | 10 to 50 | < 1 | ≥ 90 | A (A represents a DC90 value <10.0 nM) | – | – | – | CC(C)Oc1cc2c(cc1NC(=O)c1cnn3cccnc13)CN(C1CCN(CC3CN(c4cccc5c4n(C)c(=O)n5C4CCC(=O)NC4=O)C3)CC1)C2=O (stereo not drawn) [Example 381] | 70 to 80 | ≥ 90 | – | –
50 to 100 | 50 to 100 | ≥ 10 | ≥ 90 | D (D represents a DC90 value ≥50 nM) | – | – | – | O=C1CCC(N2C(=O)c3ccc(N4CC[C@@H](O[C@H]5CC[C@H](n6cc7cc(NC(=O)c8cnn9cccnc89)c(OCC8CC8)cc7n6)CC5)C4)cc3C2=O)C(=O)N1 (stereo partly drawn) [Example 426] | < 70 | 80 to 90 | – | –
10 to 50 | – | 1 to 5 | ≥ 90 | A (A represents a DC90 value <10.0 nM) | – | – | – | CC(C)Oc1cc2nn(C3CCN(CC4(F)CN(c5ccc6c(c5)C(=O)N(C5CCC(=O)NC5=O)C6=O)C4)CC3)cc2cc1NC(=O)c1cnn2cccnc12 (stereo not drawn) [Example 265, N-[2-[1-[[1-[2-(2,6-dioxo-3-piperidyl)-1,3-dioxo-isoindolin-5-yl]-3-fluoro-azetidin-3-yl]methyl]-4-piperidyl]-6-isopropoxy-indazol-5-yl]pyrazolo[1,5-a]pyrimidine-3-carboxamide] | ≥ 90 | – | – | –
